Consider 22 compounds from patent publication US7858637B2, “Administration of TLR7 ligands and prodrugs thereof for treatment of infection by hepatitis C virus” (priority 2003, dated 2010).

One experiment deals with HCV replicon. The experiment can be described thus: HCV replicon-based viral bioassay with supernatants of compound-treated PBMC. Type of experiment: cell-based, hepatitis C virus. As for the experimental part:
A quantitative assay was developed which is based on measuring the activity of the luciferase reporter gene that was integrated into an HCV replicon. By using this system, interferons from TLR7 agonist-treated PBMCs were measured and their inhibitory activity was assessed using the luciferase reporter replicon.
Human PBMCs isolated from a healthy donor were placed in replicate cell culture wells (5×10^6 cells per well). The PBMCs are incubated in the absence of test compounds at 37° C. in a humidified atmosphere containing 5% CO2 for 24 hours to allow stabilization to the culture conditions, and then the TLR7 ligand or a drug free control is added to replicate wells containing PBMCs from the same donor. The concentrations of TLR7 ligand may be varied to suit the particular experiment, and the PBMC cultures are then incubated at 37° C. in a humidified atmosphere containing 5% CO2 for eight hours. Samples of cell culture supernatant are taken at the eight hour time point (or twenty four hour time point in case of Loxoribine and its prodrugs) from TLR7 ligand treated and control wells and are assayed for interferon-alpha production by ELISA. Supernatants from compound-treated cells and a no-drug control were diluted at 1:10, 1:100, and 1:1000 in RPMI media and applied to a 96-well plate of Huh7 hepatocyte cells containing the luciferase reporter replicon. Cells were incubated for 48 hours at 37° C. in a tissue culture incubator.
After the incubation period, the 96-well plates are washed 2× with PBS and are lysed with passive lysis buffer (Promega). Plates are shaken at room temperature for 20 minutes and standard luciferase assay reagent (Promega) is added to each well by injection and the plate is read on an Lmax luminometer (Molecular Devices).
A supernatant collected from PBMC cells non-exposed to the compound and diluted as specified in the first column was used as a control (“Blank supernatant”). The PBMC cells were isolated from a single blood donor as specified.
Background: In antiviral work, replicon cells carry a viral genome segment that copies itself.

The subject of experiment [1] is human peripheral blood mononuclear cells (PBMC). In words: PBMC assay of interferon alpha release (masking). Type of experiment: cell-based. As for the experimental part:
A typical experiment would use human peripheral blood mononuclear cells (PBMC) isolated from a healthy donor and placed in replicate cell culture wells; typically, 2×10^6 to 5×10^6 cells are placed in each well. The PBMC are incubated in the absence of test compounds at 37° C. in a humidified atmosphere containing 5% CO2 for 24 hours to allow stabilization to the culture conditions, and then 100 micromolar isatoribine, the TLR7 ligand and a corresponding TLR7 ligand prodrug are added to separate wells containing PBMC from the same donor; untreated controls are included. The concentrations of TLR7 ligand and TLR7 ligand prodrug may be varied to suit the particular experiment, and the PBMC cultures are then incubated at 37° C. in a humidified atmosphere containing 5% CO2 for a period of time ranging from two hours to 48 hours. Samples of cell culture supernate media are taken during the incubation. These are assayed for cytokine production by ELISA. Additionally the amount of TLR7 ligand and TLR7 ligand prodrug remaining at the end of the incubation may be assayed by LC-MS. Cytokine production is calculated relative to production in the isatoribine control, following subtraction of the cytokine production in untreated controls.
Thus, if the TLR7 ligand generates more interferon alpha (a conveniently measured cytokine) than does the corresponding TLR7 ligand prodrug after a similar duration of exposure and concentration, the TLR7 ligand prodrug may be deemed a “masked” TLR7 ligand prodrug.

Setting [2] is: Homo sapiens, PBMC, Table 10, 100 μM, 24 hours exposure, read-out: Amount of INFa relative to that induced by isatoribine at 100 μM.
Setting [3] is: Homo sapiens, PBMC, Table 11, 100 μM, 24 hours exposure, read-out: Amount of INFa relative to that induced by isatoribine at 100 μM.
The mark [4] stands for this setting: Homo sapiens, PBMC, Table 13, 100 μM, 24 hours exposure, read-out: Amount of INFa relative to that induced by isatoribine at 100 μM.
Setting [5] is: Homo sapiens, PBMC, Table 14, 24 hours exposure, read-out: Amount of INFa relative to that induced by isatoribine at 100 μM.
Setting [6] is: Homo sapiens, PBMC, Table 9, 100 μM, 24 hours exposure, same blood donor, read-out: Amount of INFa relative to that induced by isatoribine at 100 μM.

Read-outs that look alike come from different tables or passages of the source.

Turning to `C=CCn1c(=O)n([C@@H]2O[C@H](CO)[C@@H](O)[C@H]2O)c2nc(N)[nH]c(=O)c21` [Compound 17, 7-allyl-2-amino-9-β-D-ribofuranosyl-7,9-dihydro-1H-purine-6,8-dione], the HCV replicon inhibition in the experiment on HCV replicon (Table 4 No. 1, PBMC exposed 24 hours to 100 μM, donor FL75864, supernatant dilution 1:10) amounted to 100%; in the experiment on HCV replicon (Table 4 No. 1, PBMC exposed 24 hours to 100 μM, donor FL75864, supernatant dilution 1:100) it was 74%; in the experiment on HCV replicon (Table 4 No. 1, PBMC exposed 24 hours to 100 μM, donor FL75864, supernatant dilution 1:1000) it was 17%. For the same compound, the Emax at 100 µM in experiment [1] (setting [2]) came out at 50%.

Take `CC(C)Cn1cnc2c(N)nc3ccccc3c21` [Compound 31, 1-Isobutyl-1H-imidazo[4,5-c]quinolin-4-ylamine]: the HCV replicon inhibition in the experiment on HCV replicon (Table 5 No. 1, PBMC exposed 8 hours to 3.2 μM, donor FL75287, supernatant dilution 1:10) amounted to 100%; with HCV replicon (Table 5 No. 1, PBMC exposed 8 hours to 3.2 μM, donor FL75287, supernatant dilution 1:100) it was 100%; in the experiment on HCV replicon (Table 5 No. 1, PBMC exposed 8 hours to 3.2 μM, donor FL75287, supernatant dilution 1:1000) it was 89%; in the experiment on HCV replicon (Table 5 No. 2, PBMC exposed 8 hours to 3.2 μM, donor FL75287, supernatant dilution 1:10), 100%; with HCV replicon (Table 5 No. 2, PBMC exposed 8 hours to 3.2 μM, donor FL75287, supernatant dilution 1:100), 75%; in the experiment on HCV replicon (Table 5 No. 2, PBMC exposed 8 hours to 3.2 μM, donor FL75287, supernatant dilution 1:1000), 1%. Besides, the Emax at 100 µM in experiment [1] (Homo sapiens, PBMC, 24 h, read-out: Amount of INFa relative to that induced by isatoribine at 100 μM) is 60 to 76%.

Regarding `CCCCCOC(=O)Nc1nc2ccccc2c2c1ncn2CC(C)C` [Compound 34, (1-Isobutyl-1H-imidazo[4,5-c]quinolin-4-yl)-carbamic acid pentyl ester], the Emax at 100 µM in experiment [1] (setting [3]) was 0%.

Consider `CCOC(=O)Nc1nc(-c2ccccc2)c(Br)c(=O)[nH]1` [Compound 36, (5-Bromo-6-oxo-4-phenyl-1,6-dihydro-pyrimidin-2-yl)-carbamic acid ethyl ester], for which the Emax at 100 µM in experiment [1] (setting [4]) came out at 0%.

With `CCOc1nc(N)nc(-c2ccccc2)c1Br` [Compound 37, 5-Bromo-4-ethoxy-6-phenyl-pyrimidin-2-ylamine], the Emax at 100 µM in experiment [1] (setting [4]) was determined as 0%.

`C=CCn1c(=O)n([C@@H]2O[C@H](CO)[C@@H](O)[C@H]2O)c2nc(N)ncc21` [Compound 43, 7-Allyl-2-amino-9-β-D-ribofuranosyl-7,9-dihydro-purin-8-one]: in experiment [1] (setting [2]), the Emax at 100 µM stood at 0%.

For `C=CCn1c(=O)n([C@@H]2O[C@H](CO)[C@@H](O)[C@H]2O)c2nc(N)nc(OCC)c21` [Compound 45, 7-Allyl-2-amino-6-ethoxy-9-β-D-ribofuranosyl-7,9-dihydro-purin-8-one], the Emax at 100 µM in experiment [1] (setting [2]) was 0%.

With `Nc1ncc(Br)c(-c2ccccc2)n1` [Compound 48, 5-Bromo-4-phenyl-pyrimidin-2-ylamine], the Emax at 100 µM in experiment [1] (setting [4]) was determined as 0%.

Take `CCCCCOC(=O)Nc1nc(-c2ccccc2)c(Br)c(=O)[nH]1` [Compound 49, (5-Bromo-6-oxo-4-phenyl-1,6-dihydro-pyrimidin-2-yl)-carbamic acid pentyl ester]: in experiment [1] (setting [4]), the Emax at 100 µM came to 0%.

Regarding `CCOC(=O)Nc1nc2ccccc2c2c1ncn2CC(C)C` [Compound 50, (1-Isobutyl-1H-imidazo[4,5-c]quinolin-4-yl)-carbamic acid ethyl ester], in experiment [1] (setting [3]), the Emax at 100 µM is 0%.

As to `CCOC(=O)Oc1nc2c(N)nc(OCCOC)nc2n1Cc1ccccc1` [Compound 51, Carbonic acid 6-amino-9-benzyl-2-(2-methoxy-ethoxy)-9H-purin-8-yl ester ethyl ester], in experiment [1] (Homo sapiens, PBMC, Table 14, 32 μM, 24 hours exposure, read-out: Amount of INFa relative to that induced by isatoribine at 100 μM), the Emax at 32 µM was 18%.

As to `CCCCCOC(=O)Oc1nc2c(N)nc(OCCOC)nc2n1Cc1ccccc1` [Compound 54, Carbonic acid 6-amino-9-benzyl-2-(2-methoxy-ethoxy)-9H-purin-8-yl ester pentyl ester], the Emax at 10 µM in experiment [1] (setting [5]) came to 15%.

For `COCCOc1nc(N)c2ncn(Cc3ccccc3)c2n1` [Compound 62, 9-Benzyl-2-(2-methoxy-ethoxy)-9H-purin-6-ylamine], in experiment [1] (Homo sapiens, PBMC, Table 14, 0.1 μM, 24 hours exposure, read-out: Amount of INFa relative to that induced by isatoribine at 100 μM), the Emax at 0.1 µM was found to be 0%.

Take `CCOc1nc2c(N)nc(OCCOC)nc2n1Cc1ccccc1` [Compound 64, 9-Benzyl-8-ethoxy-2-(2-methoxy-ethoxy)-9H-purin-6-ylamine]: in experiment [1] (setting [5]), the Emax at 10 µM amounted to 0%.

Turning to `COCCOc1nc(N)c2nc(OC)n(Cc3ccccc3)c2n1` [Compound 65, 9-Benzyl-8-methoxy-2-(2-methoxy-ethoxy)-9H-purin-6-ylamine], the Emax at 100 µM in experiment [1] (Homo sapiens, PBMC, Table 14, 100 μM, 24 hours exposure, read-out: Amount of INFa relative to that induced by isatoribine at 100 μM) is 0%.

Regarding `C=CCn1c(=O)n([C@@H]2O[C@H](COC(=O)[C@@H](N)C(C)C)[C@@H](O)[C@H]2O)c2nc(N)[nH]c(=O)c21` [Compound 68, 7-Allyl-2-Amino-9-(5′-O-L-valinyl-β-D-ribofuranosyl)-7,9-dihydro-1H-purine-6,8-dione], the Emax at 100 µM in experiment [1] (setting [2]) was 0%.

Turning to `CCOc1nc(N)nc2c1sc(=O)n2[C@@H]1O[C@H](CO)[C@@H](O)[C@H]1O` [Compound 77, 5-Amino-7-ethoxy-3-β-D-ribofuranosyl-thiazolo[4,5-d]pyrimidin-2-one], in experiment [1] (setting [6]), the Emax at 100 µM stood at 0%.

As to `COc1nc(N)nc2c1sc(=O)n2[C@@H]1O[C@H](CO)[C@@H](O)[C@H]1O` [Compound 79, 5-Amino-7-methoxy-3-β-D-ribofuranosyl-thiazolo[4,5-d]pyrimidin-2-one], the Emax at 100 µM in experiment [1] (setting [6]) worked out at 0%.

Consider `CCOC(=O)NCOc1nc(N)nc2c1sc(=O)n2[C@@H]1O[C@H](CO)[C@@H](O)[C@H]1O` [Compound 82, (5-Amino-2-oxo-3-β-D-ribofuranosyl-2,3-dihydro-thiazolo[4,5-d]pyrimidin-7-yloxymethyl)-carbamic acid ethyl ester], for which, in experiment [1] (setting [6]), the Emax at 100 µM was 0%.

With `CCOC(=O)N(C)COc1nc(N)nc2c1sc(=O)n2[C@@H]1O[C@H](CO)[C@@H](O)[C@H]1O` [Compound 84, (5-Amino-2-oxo-3-β-D-ribofuranosyl-2,3-dihydro-thiazolo[4,5-d]pyrimidin-7-yloxymethyl)-methyl-carbamic acid ethyl ester], in experiment [1] (setting [6]), the Emax at 100 µM worked out at 0%.

Take `CC(=O)OC[C@H]1O[C@@H](n2c(=O)sc3c(OCc4oc(=O)oc4C)nc(N)nc32)[C@H](OC(C)=O)[C@@H]1OC(C)=O` [Compound 85, 5-Amino-7-(5-methyl-2-oxo-[1,3]dioxol-4-ylmethoxy)-3-(2′,3′,5′-tri-O-acetyl-β-D-ribofuranosyl)-thiazolo[4,5-d]pyrimidin-2-one]: the Emax at 100 µM in experiment [1] (setting [6]) came out at 0%.

On to “[2-Ethoxymethyl-1-(2-hydroxy-2-methyl-propyl)-1H-imidazo[4,5-c]quinolin-4-yl]-carbamic acid ethyl ester [Compound 39]”, for which, in experiment [1] (Table 12, 1 μM, 24 hours exposure), the “Amount of INFa relative to that induced by isatoribine at 100 μM” value is given as 95 @ 1 μM %.
